Measured values: US20140275539A1, “STABILIZATION OF RADIOIODINATED AND ASTATINATED PHARMACEUTICALS AND IMAGING AGENTS” (priority 2013, published 2014)

Key:
[1] = DFT calculation of C—I bond dissociation energy (B3LYP/6-31G(d,p)/MIDI!, Gaussian 03); conditions: estimated from the DFT data, compound not covered by the calculations
Experimental: Density Functional Theory (DFT) calculations performed on a variety of model structures strongly support the novelty and uniqueness of this approach. […] Calculations were performed with the Gaussian 03 suite of programs.
Table 2 summarizes results of density functional theory calculations (B3LYP/6-31G(d,p)/MIDI!, thermal and zero point energy corrected) for compounds 1, 7, and 8, showing the dissimilar impact of ortho-chlorine substitution on the strength of the C—I bond. […] Chlorine substitution results in significant C—I bond weakening compared to iodobenzene.
Table 3 depicts the results of density functional theory calculations for compounds 1, 5, and 9-14 (B3LYP/SDD for astatobenzenes, B3LYP/6-31G(d,p)/MIDI! for the iodobenzenes, and B3LYP/6-31G(d,p) for 11-14; thermal and zero point energy corrected) showing how the effect of ortho fluorine substitution falls off as the bond strength of the C—X (where X=halogen) bond increases.
Table 4 depicts results of DFT calculations (B3LYP/6-31G(d,p)/MIDI! for compounds 15-22; thermal and zero point energy corrected) showing how the effect of ortho fluorine applies to heterocyclic systems.
Table 5 depicts results of density functional theory calculations (B3LYP/6-31G(d,p)/MIDI!; thermal and zero point energy corrected) for compounds 23-34, showing how the effect of ortho fluorine substituents applies to five-membered ring heterocycles. […]

[2] = more cytotoxic than ^123I-MIBG; cited from earlier work

Row | Structure (SMILES) | C—I bond energy increase over the derivative in which the fluorine substituents are replaced by hydrogen atoms [1] | cytotoxicity relative to ^123I-MIBG [2]
1 | N[C@@H](Cc1cc(I)c(Oc2ccc(F)c(I)c2F)c(I)c1)C(=O)O | approximately 2.5 kcal/mol | –
2 | N=C(N)NCc1cccc([211At])c1 [^211At-MIBG] | – | approximately 1000 times
